This is an account of results in PMC5923171, “Novel Zinc-Attenuating Compounds as Potent Broad-Spectrum Antifungal Agents with In Vitro and In Vivo Efficacy” (Antimicrobial Agents and Chemotherapy, 2018).

The conditions of series [1]: cited from earlier work.
The nature of series [2]: Solubility in water at millimolar concentrations. It counts as physicochemical.
Series [3] deals with C. krusei ATCC 6258. The experiment in a line: Antifungal susceptibility testing (MIC). It counts as cell-based, Candida krusei. The following applies: Pichia kudriavzevii, ATCC6258; at least 50% growth inhibition, RPMI, 24 h, 34°C. As to the method:
Antifungal susceptibility testing was carried out as described previously ([38], [39]), with a few modifications. Briefly, for each yeast or mold growth inhibition assay, frozen stocks of yeast cells or spores were diluted to a final concentration of 0.5 × 10^5 to 2.5 × 10^5 CFU/ml in sterile water. ZAC989, ZAC307, and ZAC623 were dissolved in DMSO to 10 mM stocks from which half-log serial dilutions were prepared. Growth assays were subsequently performed by pipetting 3 μl of compound dissolved in DMSO (giving a final concentration of 1.5% DMSO), 100 μl of cell-spore suspension, and 97 μl of 2× RPMI medium (20.8 g/liter of RPMI 1640 medium, 69.06 g/liter of morpholinepropanesulfonic acid [MOPS], 36 g/liter of glucose) into a microtiter plate that was incubated for 24 h (yeasts) or 48 to 72 h (molds) at 34°C. Fungal growth was determined spectrophotometrically by optical density reading of each well at a wavelength of 492 nm on a Victor X5 (Perkin-Elmer) plate reader. […] Standard errors between repeated experiments were generally below 5%. The growth effect of exogenous addition of various divalent metals was evaluated by performing the antifungal susceptibility assay in the presence of 5 μM ZAC989 or ZAC307 and with increasing concentrations (0.003 to 50 μM) of ZnSO4, CuSO4, (NH4)2Fe(SO4)2, MgCl2, and CaCl2.

Series [4] deals with wild-type A. fumigatus strain (AF14). The experiment in a line: Growth capacity in sRPMI zinc-limiting medium, 24-well plates. The following applies: 75 μM compound, 44 h, 37°C. It is filed as cell-based, Aspergillus fumigatus. As to the method: The ZACs inhibited these molds and mucorales isolates in a range from 0.4 μg/ml to 5.4 μg/ml (Table 3). To assess the capacity of the ZACs to inhibit A. fumigatus growth in the presence of zinc, 1-ml aliquots of sRPMI zinc-limiting medium (RPMI 1640 medium [R8755; Sigma] supplemented with 10 μM FeSO4·7H2O, 1 μM CuSO4·5H2O, and 1 μM MnCl2·H2O) or this medium supplemented with 2, 5, or 50 μM zinc were inoculated with 10^5 conidia of a wild-type A. fumigatus strain (AF14), dispensed in 24-well culture plates, and incubated in the presence of either ZAC307 or ZAC989 at a final concentration 21 μg/ml or 27 μg/ml (equivalent to 75 μM), respectively (Fig. 5A).
Growth capacity experiments with A. fumigatus strains AF14, AF54, AF48, AF732, and AF731 were performed in 24-well flat-bottomed tissue culture plates (35-3047; Falcon). A stock solution of 10 mM TPEN (P4413; Sigma) was prepared in pure ethanol. For these experiments, 5 mM stock solutions of ZAC307 and ZAC989 were prepared by dissolving each compound in 80% (vol/vol) ethanol. A 0.5 M stock solution of Na2EDTA·2H2O (1.08421.1000; Merck) was prepared in sterile water. […] To quantitate mycelial growth, each plate was scanned in an Agfa SnapScan 1236s scanner, and the intensity of the wells was quantified using the open-source image processing program Image J2. The data were represented and analyzed with Prism software 7.0.

In series [5] the test system is A. fumigatus AF48 (ΔzrfA ΔzrfB). The description is as above. It counts as cell-based, Aspergillus fumigatus. The following applies: 75 μM compound, 44 h, 37°C. As to the method:
(§1) Growth capacity experiments with A. fumigatus strains AF14, AF54, AF48, AF732, and AF731 were performed in 24-well flat-bottomed tissue culture plates (35-3047; Falcon). A stock solution of 10 mM TPEN (P4413; Sigma) was prepared in pure ethanol. For these experiments, 5 mM stock solutions of ZAC307 and ZAC989 were prepared by dissolving each compound in 80% (vol/vol) ethanol. A 0.5 M stock solution of Na2EDTA·2H2O (1.08421.1000; Merck) was prepared in sterile water. A 1× stock solution (10.4 g/liter) of RPMI 1640 medium (R8755; Sigma) supplemented with 10 μM FeSO4·7H2O, 1 μM CuSO4·5H2O, and 1 μM MnCl2·H2O (sRPMI) was prepared under aseptic conditions and used as standard culture medium. In each well, 1 ml of culture medium containing sRPMI medium, Tween 20, ethanol (or the specified compound dissolved in 80% ethanol), and 10^5 conidia was dispensed to achieve final concentrations of 0.7×, 0.05% (vol/vol), 1.2% (vol/vol), and 10^5 conidia/ml, respectively. Plates were incubated for 44 h at 37°C in a humid atmosphere. To quantitate mycelial growth, each plate was scanned in an Agfa SnapScan 1236s scanner, and the intensity of the wells was quantified using the open-source image processing program Image J2. The data were represented and analyzed with Prism software 7.0.

For series [6], the system named is A. fumigatus AF54 (ΔzrfC). The series is described as above. It counts as cell-based, Aspergillus fumigatus. The following applies: average, either with or without simultaneous exposure to ZAC307 or ZAC989. As to the method: as §1
Series [7] deals with Candida albicans SC5314. The experiment in a line: In vivo fungal kidney burden candidiasis model. The following applies: for Mean log CFU/kidney / Mean log CFU/kidney reduction: 60 mg/kg i.p. twice a day; for Mean log CFU/kidney reduction: vs untreated control; for adverse effects following dosing: 60 mg/kg i.p., mice. Further details: species or system BALB/c mice. Here is the method: A murine model of systemic candidiasis was established according to a previously described method ([44]). BALB/c mice were infected with a 0.1-ml inoculum (1 × 10^5 to 5 × 10^5 CFU) of Candida albicans SC5314 cells by the intravenous route on day 0. Compounds were tested at doses of 60 mg/kg. Administration of compound was initiated 24 h prior (day −1) to infection (day 0) by the intraperitoneal route, dosing twice a day for 4 days (day −1 to day 2). ZAC307 was also evaluated with administration of the compounds given after the infection at day 0 (no pretreatment) and following dosing twice a day for 3 days (days 0 to 2). Fluconazole was used as a comparator drug. Six mice were used for each group, and the untreated control group was exposed to the vehicle alone. ZAC989 and ZAC307 were formulated by taking 60 mg of compound and adding this to 2 ml and 4 ml of 0.1 N NaOH, respectively. After mixing and sonication of the resulting solutions, 4 ml of purified water was added. The pH was adjusted to 9.0 with 0.1 N HCl solution, followed by the addition of 90 mg of NaCl. The solutions were then diluted to 10 ml and filtered through a 0.22-μm polyvinylidene difluoride (PVDF) filter. Sample collection and processing were performed as follows. Twelve hours after the last dose, all treated and untreated animals were sacrificed by cervical dislocation and kidneys were collected in 3 ml of sterile normal saline. The samples were homogenized, serially diluted, and plated on Sabouraud dextrose agar (SDA). SDA plates were incubated for 24 to 48 h at 35°C, and CFU were enumerated and reported as log CFU/kidney. The endpoint was mean log CFU of fungi in kidneys of treated animals compared to that of untreated animals. The study was conducted in conformance with an application submitted to the Committee for the Purpose of Control and Supervision of Experiments on Animals (CPCSEA), New Delhi, India, after approval from the Institutional Animal Ethics Committee (IAEC).

In brackets after ≈: the same amount, converted by molar mass. Marks after values point to notes of the source that are not given here.

Turning to `c1ccc(CN(CCN(Cc2ccccn2)Cc2ccccn2)Cc2ccccn2)nc1` [TPEN, N,N,N’,N’-tetrakis(2-pyridylmethyl)-ethylenediamine], in series [1], the “zinc chelation (in words)” value is reported as “very potent zinc chelators”.

What is called MIC is the lowest concentration that inhibits growth of the organism. With `CN(C)c1cc(-n2nc(-c3ccccc3)cc2O)ncn1` [ZAC307, 2-[6-(dimethylamino)pyrimidin-4-yl]-5-phenyl-pyrazol-3-ol], the solubility in water entry in series [2] is on record as “poor solubility in water”. The compound also registered an MIC in series [3] of 0.4 µg/mL (≈ 1.42 µM). Also, the results for the “reduction of growth capacity, 2 μM zinc plus compound compared to 50 μM zinc” value in series [4] and in series [5] were 2.9 fold and 3.9 fold, respectively. The “reduction of growth capacity at 2 μM zinc compared to 50 μM zinc” value in series [6] is reported as 24.6 fold. Besides, the “Mean log CFU/kidney” value in series [7] (day −1 to day 2 (pretreatment)) is recorded as 4.73 ± 0.19 log CFU/kidney; in series [7] (days 0 to 2, no pretreatment) it was 4.77 ± 0.19 log CFU/kidney. The “Mean log CFU/kidney reduction” value in series [7] (day −1 to day 2 (pretreatment)) is 1.06 log CFU/kidney; in series [7] (days 0 to 2, no pretreatment) it was 1.03* log CFU/kidney. For the same compound, the “adverse effects following dosing” value in series [7] is listed as “no adverse effects”.

With `O=C(O)CN(CCN(CC(=O)O)CC(=O)O)CC(=O)O` [EDTA], the “zinc chelation (in words)” value in series [1] is on record as “very potent zinc chelators”.

With `Cc1cc(O)n(-c2cc(N3CC[C@H](Oc4cnccc4C#N)C3)ncn2)n1` [ZAC989, 3-[(3S)-1-[6-(5-hydroxy-3-methyl-pyrazol-1-yl)pyrimidin-4-yl]pyrrolidin-3-yl]oxy-pyridine-4-carbonitrile], the solubility in water entry in series [2] is recorded as “poor solubility in water”. For the same compound, the MIC in series [3] was 0.8 µg/mL (≈ 2.2 µM). Also, the results for the “reduction of growth capacity, 2 μM zinc plus compound compared to 50 μM zinc” value in series [4] and in series [5] were 3.9 fold and 4.5 fold, respectively. The “reduction of growth capacity at 2 μM zinc compared to 50 μM zinc” value in series [6] is given as 24.6 fold. The “Mean log CFU/kidney” value in series [7] (day −1 to day 2 (pretreatment)) is 4.09 ± 0.31 log CFU/kidney. The “Mean log CFU/kidney reduction” value in series [7] (day −1 to day 2 (pretreatment)) is reported as 1.71 log CFU/kidney. In addition, in series [7], the “adverse effects following dosing” value is “lethargy lasting for 5 to 15 min after dosing”.
